Experimental data reported in patent US9604975B2, “Indolyl-pyridone derivatives having checkpoint kinase 1 inhibitory activity” (Vernalis (R&D) Ltd., priority 2009, dated 2017).

These compounds were tested against T1, CHK1 (Homo sapiens, UniProt O14757) (assay: CHK1 Enzyme Assay (phosphorylation of Chktide peptide, 33P-ATP filter assay)). Conditions: 12.5 nM His-CHK1, 0.01 mM ATP, 40 minutes at 30° C.; read-out: CHK1 Enzyme Activity (IC50 range).
T1 construct: His; purchased Invitrogen
T1 sequence (O14757 1-476): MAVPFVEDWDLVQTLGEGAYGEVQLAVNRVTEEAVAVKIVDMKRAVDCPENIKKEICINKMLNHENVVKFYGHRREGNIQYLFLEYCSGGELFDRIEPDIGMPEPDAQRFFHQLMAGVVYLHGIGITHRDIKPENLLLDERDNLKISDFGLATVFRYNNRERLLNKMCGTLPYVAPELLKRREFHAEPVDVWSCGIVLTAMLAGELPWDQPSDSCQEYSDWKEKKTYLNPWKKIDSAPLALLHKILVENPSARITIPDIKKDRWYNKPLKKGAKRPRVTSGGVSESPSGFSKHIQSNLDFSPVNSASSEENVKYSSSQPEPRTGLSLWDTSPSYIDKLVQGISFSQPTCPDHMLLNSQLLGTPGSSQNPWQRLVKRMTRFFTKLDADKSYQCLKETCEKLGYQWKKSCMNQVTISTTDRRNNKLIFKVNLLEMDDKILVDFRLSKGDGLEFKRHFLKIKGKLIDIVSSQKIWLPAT
Format: biochemical
Outline: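 Filter-binding radiometric readout of 33P incorporation into Chktide (14.8 μM), after a 40 min, 30 °C reaction at pH 7.5 (50 mM Hepes-NaOH, 0.1 mg/mL BSA). The reaction contained 12.5 nM His-tagged CHK1, inhibitor and 0.01 mM cold ATP plus labelled ATP.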

SMILES | IC50 [µM]
CC1CCN(Cc2ccc3[nH]c(-c4cc(NC(=O)c5cnn(Cc6ccc(F)cc6)c5)c[nH]c4=O)cc3c2)CC1 [Example 82, 1-(4-Fluoro-benzyl)-1H-pyrazole-4-carboxylic acid {5-[5-(4-methyl-piperidin-1-ylmethyl)-1H-indol-2-yl]-6-oxo-1,6-dihydro-pyridin-3-yl}-amide] | < 0.1
CCNCc1ccc2[nH]c(-c3cc(NC(=O)c4cnn(Cc5ccc(F)cc5)c4)c[nH]c3=O)cc2c1 [Example 83, 1-(4-Fluoro-benzyl)-1H-pyrazole-4-carboxylic acid [5-(5-ethylaminomethyl-1H-indol-2-yl)-6-oxo-1,6-dihydro-pyridin-3-yl]-amide] | < 0.1
CN(Cc1ccc2[nH]c(-c3cc(NC(=O)c4cnn(Cc5ccc(F)cc5)c4)c[nH]c3=O)cc2c1)C1CCCCC1 [Example 84] | < 0.1
CC(c1ccccc1)n1cc(C(=O)Nc2c[nH]c(=O)c(-c3cc4cc(CN5CCCCC5)ccc4[nH]3)c2)cn1 (stereo not drawn) [Example 85, 1-(1-Phenyl-ethyl)-1H-pyrazole-4-carboxylic acid [6-oxo-5-(5-piperidin-1-ylmethyl-1H-indol-2-yl)-1,6-dihydro-pyridin-3-yl]-amide] | < 0.1
CC(c1ccccc1)n1cc(C(=O)Nc2c[nH]c(=O)c(-c3cc4cc(CN5CCOCC5)ccc4[nH]3)c2)cn1 (stereo not drawn) [Example 86, 1-(1-Phenyl-ethyl)-1H-pyrazole-4-carboxylic acid [5-(5-morpholin-4-ylmethyl-1H-indol-2-yl)-6-oxo-1,6-dihydro-pyridin-3-yl]-amide] | < 0.1
CC(c1ccc(F)cc1)n1cc(C(=O)Nc2c[nH]c(=O)c(-c3cc4cc(CN5CCCCC5)ccc4[nH]3)c2)cn1 (stereo not drawn) [Example 88, 1-[1-(4-Fluoro-phenyl)-ethyl]-1H-pyrazole-4-carboxylic acid [6-oxo-5-(5-piperidin-1-ylmethyl-1-H-indol-2-yl)-1,6-dihydro-pyridin-3-yl]-amide] | < 0.1
CC(c1ccc(F)cc1)n1cc(C(=O)Nc2c[nH]c(=O)c(-c3cc4cc(CN5CCN(C)CC5)ccc4[nH]3)c2)cn1 (stereo not drawn) [Example 89, 1-[1-(4-Fluoro-phenyl)-ethyl]-1H-pyrazole-4-carboxylic acid {5-[5-(4-methylpiperazin-1-ylmethyl)-1H-indol-2-yl]-6-oxo-1,6-dihydro-pyridin-3-yl}-amide] | < 0.1
CC(c1ccc(F)cc1)n1cc(C(=O)Nc2c[nH]c(=O)c(-c3cc4cc(CN5CCC(F)CC5)ccc4[nH]3)c2)cn1 (stereo not drawn) [Example 90, 1-[1-(Fluoro-phenyl)-ethyl]-1H-pyrrazole-4-carboxylic acid {5-[5-(4-fluoro-piperidin-1ylmethyl)-1H-indol-2-yl]-6-oxo-1,6-dihydro-pyridin-3-yl}-amide] | < 0.1
CC(c1ccccc1)n1cc(C(=O)Nc2c[nH]c(=O)c(-c3cc4cc(CN5C[C@@H](C)O[C@@H](C)C5)ccc4[nH]3)c2)cn1 (stereo partly drawn) [Example 91, 1-(1-Phenyl-ethyl)-1H-pyrazole-4-carboxylic acid {5-[5-(cis-2,6-dimethyl-morpholin-4-ylmethyl)-1H-indol-2-yl]-6-oxo-1,6-dihydro-pyridin-3-yl}-amide] | < 0.1
CC1CCN(Cc2ccc3[nH]c(-c4cc(NC(=O)c5cnn(C(C)c6ccccc6)c5)c[nH]c4=O)cc3c2)CC1 (stereo not drawn) [Example 92, 1-(1-Phenyl-ethyl)-1H-pyrazole-4-carboxylic acid {5-[5-(4-methyl-piperidin-1-ylmethyl)-1H-indol-2-yl]-6-oxo-1,6-dihydro-pyridin-3-yl}-amide] | < 0.1

The next lines start with the values.

IC50 [µM] | SMILES
< 0.1 | CC(c1ccccc1)n1cc(C(=O)Nc2c[nH]c(=O)c(-c3cc4ccccc4[nH]3)c2)cn1 (stereo not drawn) [Example 93, 1-(1-Phenylethyl)-1H-pyrazole-4-carboxylic acid [5-(1H-indol-2-yl)-6-oxo-1,6-dihydropyridin-3-yl]-amide]
< 0.1 | O=C(Nc1c[nH]c(=O)c(-c2cc3ccccc3[nH]2)c1)c1cnn(CCCc2ccccc2)c1 [Example 94, 1-(3-Phenyl-propyl)-1H-pyrazole-4-carboxylic acid [5-(1H-indol-2-yl)-6-oxo-1,6-dihydro-pyridin-3-yl]-amide]
< 0.1 | O=C(Nc1c[nH]c(=O)c(-c2cc3cc(CN4CCCCC4)ccc3[nH]2)c1)c1cnn(CCc2ccc(F)cc2)c1 [Example 95, 1-[2-(4-Fluoro-phenyl)-ethyl]-1H-pyrazole-4-carboxylic acid [6-oxo-5-(5-piperidin-1-ylmethyl-1H-indol-2-yl)-1,6-dihydro-pyridin-3-yl]-amide]
< 0.1 | O=C(Nc1c[nH]c(=O)c(-c2cc3cc(CN4CCC(F)CC4)ccc3[nH]2)c1)c1cnn(CCc2ccc(F)cc2)c1 [Example 96, 1-[2-(4-Fluoro-phenyl)-ethyl]-1H-pyrazole-4-carboxylic acid {5-[5-(4-fluoro-piperidin-1-ylmethyl)-1H-indol-2-yl]-6-oxo-1,6-dihydro-pyridin-3-yl}-amide]
< 0.1 | O=C(Nc1cnn(Cc2ccc(F)c(F)c2)c1)c1c[nH]c(=O)c(-c2cc3cc(CN4CCC(F)CC4)ccc3[nH]2)c1 [Example 97, 5-[5-(4-Fluoro-piperidin-1-ylmethyl)-1H-indol-2-yl]-6-oxo-1,6-dihydro-pyridine-3-carboxylic acid [1-(3,4-difluoro-benzyl)-1H-pyrazol-4-yl]-amide]
< 0.1 | O=C(Nc1cnn(Cc2ccc(F)c(F)c2)c1)c1c[nH]c(=O)c(-c2cc3cc(CN4CCCC4)ccc3[nH]2)c1 [Example 98, 6-oxo-5-(5-pyrrolidin-1-ylmethyl-1H-indol-2-yl)-1,6-dihydro-pyridine-3-carboxylic acid [1-(3,4-difluoro-benzyl)-1H-pyrazol-4-yl]-amide]
< 0.1 | O=C(Nc1cnn(Cc2ccc(F)c(F)c2)c1)c1c[nH]c(=O)c(-c2cc3cc(CN4CCOCC4)ccc3[nH]2)c1 [Example 99, 5-(5-Morpholin-4-ylmethyl-1H-indol-2-yl)-6-oxo-1,6-dihydro-pyridine-3-carboxylic acid [1-(3,4-difluoro-benzyl)-1H-pyrazol-4-yl]-amide]
< 0.1 | O=C(Nc1cnn(Cc2ccc(F)c(F)c2)c1)c1c[nH]c(=O)c(-c2cc3cc(CN4CCC(O)CC4)ccc3[nH]2)c1 [Example 100, 5-[5-(4-Hydroxypiperidin-1-ylmethyl)-1H-indol-2yl]-6-oxo-1,6-dihydropyridine-3-carboxylic acid[1-(3,4-difluorobenzyl)-1H-pyrazol-4-yl]-amide]
< 0.1 | CN(CCO)Cc1ccc2[nH]c(-c3cc(C(=O)Nc4cnn(Cc5ccc(F)c(F)c5)c4)c[nH]c3=O)cc2c1 [Example 101, 5-(5-{[(2-hydroxyethyl)-methylamino]-methyl}-1H-indol-2yl)-6-oxo-1,6-dihydropyridine-3-carboxylic acid[1-(3,4-difluorobenzyl)-1H-pyrazol-4-yl]-amide]
< 0.1 | CCN(CCO)Cc1ccc2[nH]c(-c3cc(C(=O)Nc4cnn(Cc5ccc(F)c(F)c5)c4)c[nH]c3=O)cc2c1 [Example 102, 5-(5-{[Ethyl-(2-hydroxyethyl)amino]-methyl}-1H-indol-2yl)-6-oxo-1,6-dihydropyridine-3-carboxylic acid[1-(3,4-difluorobenzyl)-1H-pyrazol-4-yl]-amide]
< 0.1 | O=C(Nc1cnn(Cc2ccc(F)c(F)c2)c1)c1c[nH]c(=O)c(-c2cc3cc(CNCCO)ccc3[nH]2)c1 [Example 103, 5-{5-[(2-Hydroxyethylamino)-methyl]-1H-indol-2yl}-6-oxo-1,6-dihydropyridine-3-carboxylic acid[1-(3,4-difluorobenzyl)-1H-pyrazol-4-yl]-amide]
